This passage reports T/C results from PubChem BioAssay AID330 (DTP/NCI, 2004).

“And” between values parts separate entries of the source, which are not always exact repeats. Identical values can stand only once. Toxic doses and inconclusive results are not listed.

This experiment has as its system P388 leukemia ip, CD2F1 mice, survival T/C. Put plainly: NCI In Vivo Anticancer Drug Screen. Data for tumor model P388 Leukemia (intraperitoneal) in CD2F1 (CDF1) mice. Conditions: endpoint: median survival time, higher = longer survival. In a few lines: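 Mice carrying the transplanted tumor received test compound or vehicle. Survival was recorded in each group, and the value is the treated-group measurement divided by that of the vehicle-treated control group.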

Where [1] appears, read: dose: 60.0 mg/kg/injection, schedule: Q01DX005 (ip), vehicle: Klucel (hydroxypropylcellulose) (HPC).
The mark [2] stands for this setting: dose: 120.0 mg/kg/injection, schedule: Q01DX005 (ip), vehicle: Klucel (hydroxypropylcellulose) (HPC).
Where [3] appears, read: dose: 240.0 mg/kg/injection, schedule: Q01DX005 (ip), vehicle: Klucel (hydroxypropylcellulose) (HPC).
The mark [4] stands for this setting: dose: 100.0 mg/kg/injection, schedule: Q01DX001 (ip), vehicle: Klucel (hydroxypropylcellulose) (HPC).
Setting [5] is: dose: 200.0 mg/kg/injection, schedule: Q01DX001 (ip), vehicle: Klucel (hydroxypropylcellulose) (HPC).
[6] abbreviates: dose: 400.0 mg/kg/injection, schedule: Q01DX001 (ip), vehicle: Klucel (hydroxypropylcellulose) (HPC).
Where [7] appears, read: dose: 100.0 mg/kg/injection, schedule: Q04DX003 (ip), vehicle: saline.
The mark [8] stands for this setting: dose: 50.0 mg/kg/injection, schedule: Q01DX005 (ip), vehicle: saline with Tween-80.
The mark [9] stands for this setting: dose: 100.0 mg/kg/injection, schedule: Q01DX005 (ip), vehicle: saline with Tween-80.
Where [10] appears, read: dose: 200.0 mg/kg/injection, schedule: Q01DX005 (ip), vehicle: saline with Tween-80.
Where [11] appears, read: dose: 60.0 mg/kg/injection, schedule: Q01DX005 (ip), vehicle: saline with Tween-80.
[12] abbreviates: dose: 120.0 mg/kg/injection, schedule: Q01DX005 (ip), vehicle: saline with Tween-80.
Where [13] appears, read: dose: 240.0 mg/kg/injection, schedule: Q01DX005 (ip), vehicle: saline with Tween-80.
Where [14] appears, read: dose: 6.25 mg/kg/injection, schedule: Q01DX009 (ip), vehicle: saline.
The mark [15] stands for this setting: dose: 100.0 mg/kg/injection, schedule: Q01DX009 (ip), vehicle: other.
Setting [16] is: dose: 200.0 mg/kg/injection, schedule: Q01DX009 (ip), vehicle: other.
[17] abbreviates: dose: 400.0 mg/kg/injection, schedule: Q01DX009 (ip), vehicle: other.

With `CN(C)CCOc1ccc2c(c1)C/C(=C/c1ncc([N+](=O)[O-])n1C)C2=O`, the T/C reads like this: (dose: 11.0 mg/kg/injection, schedule: Q01DX009 (ip), vehicle: saline with Tween-80) 124 % of control; (dose: 15.0 mg/kg/injection, schedule: Q01DX009 (ip), vehicle: saline with Tween-80) 109 % of control and 117 % of control; (dose: 22.0 mg/kg/injection, schedule: Q01DX009 (ip), vehicle: saline with Tween-80) 124 % of control; (dose: 30.0 mg/kg/injection, schedule: Q01DX009 (ip), vehicle: saline with Tween-80) 119 % of control; (dose: 60.0 mg/kg/injection, schedule: Q01DX009 (ip), vehicle: saline with Tween-80) 117 % of control; (dose: 180.0 mg/kg/injection, schedule: Q01DX009 (ip), vehicle: saline with Tween-80) 87 % of control.
As for `COc1ccc(C(=O)c2[nH]ncc2Nc2ccccc2)cc1`, the T/C under setting [1] was 97 % of control, the T/C under setting [2] was 117 % of control and the T/C under setting [3] was 91 % of control.
Take `COc1ccc(-n2c(=O)c(N=Nc3ccc(S(=O)(=O)N=C(N)N)cc3)c(O)n(-c3ccc(Cl)cc3)c2=S)cc1`: the T/C runs as follows: (dose: 100.0 mg/kg/injection, schedule: Q01DX002 (ip), vehicle: Klucel (hydroxypropylcellulose) (HPC)) 99 % of control; (dose: 200.0 mg/kg/injection, schedule: Q01DX002 (ip), vehicle: Klucel (hydroxypropylcellulose) (HPC)) 107 % of control; (dose: 400.0 mg/kg/injection, schedule: Q01DX002 (ip), vehicle: Klucel (hydroxypropylcellulose) (HPC)) 106 % of control.
For the molecule `CC(=O)/C(C(=N)c1nc(C)c(C(=O)c2ccccc2)c(C(N)=O)n1)=C(/O)c1ccccc1`, the T/C was 90 % of control under setting [4], 88 % of control under setting [5] and 89 % of control under setting [6].
Regarding `Nc1ccc(C(=O)c2cccs2)cn1`, the T/C (dose: 50.0 mg/kg/injection, schedule: Q01DX005 (ip), vehicle: distilled water + alcohol) is 98 % of control and the T/C (dose: 100.0 mg/kg/injection, schedule: Q01DX005 (ip), vehicle: distilled water + alcohol) is 104 % of control.
On to `CC1=NN(c2ccccc2)C(=O)/C1=C1\SS/C(=C2\C(=O)N(c3ccccc3)N=C2C)S1`, for which the T/C was 100 % of control (dose: 12.5 mg/kg/injection, schedule: Q01DX009 (ip), vehicle: Klucel (hydroxypropylcellulose) (HPC)); 103 % of control (dose: 25.0 mg/kg/injection, schedule: Q01DX009 (ip), vehicle: Klucel (hydroxypropylcellulose) (HPC)); 121 % of control and 90 % of control (dose: 50.0 mg/kg/injection, schedule: Q01DX009 (ip), vehicle: Klucel (hydroxypropylcellulose) (HPC)); 92 % of control and 94 % of control (dose: 100.0 mg/kg/injection, schedule: Q01DX009 (ip), vehicle: Klucel (hydroxypropylcellulose) (HPC)); 102 % of control (dose: 200.0 mg/kg/injection, schedule: Q01DX009 (ip), vehicle: Klucel (hydroxypropylcellulose) (HPC)).
With `COc1nc(/C=C/c2ccccc2)c([N+](=O)[O-])c(OC)n1`, the T/C reads like this: under setting [7], 103 % of control; (dose: 200.0 mg/kg/injection, schedule: Q04DX003 (ip), vehicle: saline) 103 % of control; (dose: 400.0 mg/kg/injection, schedule: Q04DX003 (ip), vehicle: saline) 100 % of control.
Regarding `CCSc1nc(N)c(Br)c(Sc2nc(N)nc3nc[nH]c23)n1`, the T/C reads like this: under setting [8], 103 % of control; under setting [9], 101 % of control; under setting [10], 97 % of control.
Regarding `Nc1ccc(Cl)cc1C(=O)c1ccccc1Cl`, the T/C is, setting by setting: under setting [11], 96 % of control; under setting [12], 96 % of control; under setting [13], 90 % of control.
Consider `COC(/C=N/OC(=O)c1ccccc1)c1ccccc1` (centres undefined), for which the T/C by setting is: (dose: 25.0 mg/kg/injection, schedule: Q04DX003 (ip), vehicle: saline with Tween-80) 98 % of control and 90 % of control; (dose: 50.0 mg/kg/injection, schedule: Q04DX003 (ip), vehicle: saline with Tween-80) 92 % of control.
As to `CCCCN(CCCC)P(=O)(N1CC1)N1CC1`, the T/C was 118 % of control under setting [14]; 175 % of control (dose: 16.5 mg/kg/injection, schedule: Q01DX009 (ip), vehicle: saline); 90 % of control under setting [7].
For `Cc1cc(C)nc(/C=C/c2ccc(/C=C/c3cc(C)cc(C)n3)cc2)c1`, the T/C is, setting by setting: under setting [11], 97 % of control; under setting [12], 87 % of control; under setting [13], 92 % of control.
Regarding `CCC(=O)N=c1sc(SCc2ccccc2)nn1C(=O)SC` (tested in a mixture with another compound), the T/C under setting [1] was 95 % of control, the T/C under setting [2] was 98 % of control and the T/C under setting [3] is 90 % of control.
Turning to `O=[N+]([O-])/C=C/c1ccc(Cl)cc1Cl`, the T/C is 118 % of control (dose: 20.0 mg/kg/injection, schedule: Q04DX003 (ip), vehicle: saline with Tween-80); 118 % of control (dose: 40.0 mg/kg/injection, schedule: Q04DX003 (ip), vehicle: saline with Tween-80); 118 % of control (dose: 80.0 mg/kg/injection, schedule: Q04DX003 (ip), vehicle: saline with Tween-80).
Take `NC(CCC(=O)NC(CSCC(=O)Nc1ccc(O)cc1)C(=O)NCC(=O)O)C(=O)O` (centres undefined): the T/C is 97 % of control (dose: 60.0 mg/kg/injection, schedule: Q01DX005 (ip), vehicle: saline); 97 % of control (dose: 120.0 mg/kg/injection, schedule: Q01DX005 (ip), vehicle: saline); 97 % of control (dose: 240.0 mg/kg/injection, schedule: Q01DX005 (ip), vehicle: saline).
Consider `Oc1ccc(N=Nc2ccc3ccc4cccc5ccc2c3c45)c2cccnc12`, for which the T/C (dose: 25.0 mg/kg/injection, schedule: Q04DX003 (ip), vehicle: Klucel (hydroxypropylcellulose) (HPC)) was 101 % of control; the T/C (dose: 50.0 mg/kg/injection, schedule: Q04DX003 (ip), vehicle: Klucel (hydroxypropylcellulose) (HPC)) is 101 % of control; the T/C (dose: 100.0 mg/kg/injection, schedule: Q04DX003 (ip), vehicle: Klucel (hydroxypropylcellulose) (HPC)) was 100 % of control.
For `CC(=O)NNc1cccc(Cl)n1`, the T/C under setting [4] was 98 % of control, the T/C under setting [5] is 96 % of control and the T/C under setting [6] is 97 % of control.
As to `CC1CC=C2C=C(Cl)C=CC2(C)C1C` (centres undefined), the T/C was 98 % of control under setting [8], 96 % of control under setting [9] and 91 % of control under setting [10].
As to `CCCCCCCCCCCC(=O)CCCCC`, the T/C under setting [15] was 90 % of control, the T/C under setting [16] is 100 % of control and the T/C under setting [17] is 104 % of control.
As to `CCN(CC)Cc1cc(Nc2ccnc3cc(N(C)C)ccc23)ccc1O`, the T/C under setting [14] is 103 % of control; the T/C (dose: 12.5 mg/kg/injection, schedule: Q01DX009 (ip), vehicle: saline) is 115 % of control; the T/C (dose: 25.0 mg/kg/injection, schedule: Q01DX009 (ip), vehicle: saline) is 115 % of control.
Turning to `COc1ccc(OC)c(C=C(C(C)=O)C(C)=O)c1`, the T/C (dose: 25.0 mg/kg/injection, schedule: Q01DX009 (ip), vehicle: other) is 111 % of control; the T/C (dose: 50.0 mg/kg/injection, schedule: Q01DX009 (ip), vehicle: other) is 105 % of control; the T/C under setting [15] is 109 % of control; the T/C under setting [16] is 108 % of control; the T/C under setting [17] was 115 % of control.
As for `CC(C)=CCC1=CC(=O)C=CC1=O`, the T/C was 98 % of control (dose: 6.25 mg/kg/injection, schedule: Q01DX009 (ip), vehicle: saline with Tween-80); 99 % of control (dose: 12.5 mg/kg/injection, schedule: Q01DX009 (ip), vehicle: saline with Tween-80); 107 % of control (dose: 25.0 mg/kg/injection, schedule: Q01DX009 (ip), vehicle: saline with Tween-80); 114 % of control (dose: 50.0 mg/kg/injection, schedule: Q01DX009 (ip), vehicle: saline with Tween-80).
Turning to `CNC(=O)OCc1c(COC(=O)NC)c(-c2ccc([N+](=O)[O-])cc2)n(C)c1C`, the T/C is, setting by setting: (dose: 6.25 mg/kg/injection, schedule: Q01DX009 (ip), vehicle: distilled water + Tween-80) 151 % of control and 153 % of control; (dose: 12.5 mg/kg/injection, schedule: Q01DX009 (ip), vehicle: distilled water + Tween-80) 159 % of control and 169 % of control.
